Experimental data taken from patent publication US11912699B2, “Tau-protein targeting compounds and associated” (Arvinas Operations, Inc., priority 2019, dated 2024).
Where a name gives a salt, the structure may show the parent alone.

These compounds were tested against T1, Tau P301L (Homo sapiens, UniProt P10636, P618L) (assay: In vitro tau degradation assay in CHOK1 Tau P301L cells (sarkosyl insoluble tau, WES)). Conditions: CHO-K1; remaining tau protein in sarkosyl insoluble pellet; CHOK1 Tau P301L cells treated 48 hours with test compound at 1 μM, doxycycline removed for the last 24 hours; relative to DMSO doxycycline control; read-out: Tau Protein Degradation effect at 1 μM.
T1 construct: expressed in transfected cells
T1 sequence (P10636 1-441 isoform P10636-8 P301L): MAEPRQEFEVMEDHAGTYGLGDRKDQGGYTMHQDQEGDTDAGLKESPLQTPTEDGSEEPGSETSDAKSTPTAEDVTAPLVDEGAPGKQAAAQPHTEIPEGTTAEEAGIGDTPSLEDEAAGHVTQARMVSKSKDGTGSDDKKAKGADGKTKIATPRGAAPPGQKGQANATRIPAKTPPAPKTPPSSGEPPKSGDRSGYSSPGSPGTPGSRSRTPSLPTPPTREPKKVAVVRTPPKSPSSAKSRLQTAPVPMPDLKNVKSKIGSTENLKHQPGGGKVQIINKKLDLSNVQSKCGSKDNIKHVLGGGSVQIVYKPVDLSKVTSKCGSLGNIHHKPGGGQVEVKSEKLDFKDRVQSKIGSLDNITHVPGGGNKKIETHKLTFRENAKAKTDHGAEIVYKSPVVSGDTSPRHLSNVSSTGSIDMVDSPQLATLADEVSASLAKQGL
Type: cell-based
Procedure: Exemplary bifunctional molecules of the present disclosure are represented by the structures in Table 1, which includes associated data. In vitro tau protein degradation data in CHOK1 Tau P301L cells, as described below, is reported based on the remaining tau protein in the sarkosyl insoluble pellet following treatment of cells for 48 hours with test compound at the 1 μM concentration where the last 24 hours doxycycline was removed. The data are represented relative to DMSO doxycycline control: • A ≤50% of tau protein remaining (>50% of tau protein degraded) • B >50% of tau protein remaining ([…] of tau protein degraded)
Data for compounds in Table 1 was generated using in vitro tau Degradation Assay protocol as described in Methods for FIGS. 2A and 2B below.
FIGS. 2A and 2B. (2A) Tau expression was induced by addition (+) of doxycycline (1 μg/ml) to ChoK1-Tau P301L clone D1.
In vitro tau Degradation Assay for FIGS. 2A and 2B. T-Rex CHOK1 cells are maintained in Ham's F-12 Nutrient Mix (ThermoFisher) plus 10% Fetal Bovine Serum Tetracycline Negative (Corning) with 10 ug/mL Blasticidin S HCl (Gibco) and 200 ug/mL Zeocin (100 mg/mL, Invitrogen). A stable clone expressing Tau P301L in the presence of doxycycline (1 μg/ml), clone D1 was selected. Compounds were diluted to indicated concentrations and used to treat cells for the indicated times. Cells were harvested from either 96, 24, 6, or 10 cm dishes coated with Poly-D-Lysine (Corning) in ice cold PBS or Buffer H+HALT Protease and phosphatase inhibitors (Thermofisher). Sarkosyl Insoluble tau was isolated as described in Eckermann et al. and Greenberg and Davies, accordingly. WES™ capillary electrophoresis analysis was performed on the Sarkosyl Insoluble tau fraction using Tau1 antibody (Milipore) unless otherwise indicated, as specified in the manufacturers specification (ProteinSimple).

Row | SMILES | remaining activity at 1 µM [%]
1 | O=C1CCC(N2C(=O)c3cccc(N4CCN(CCC5CCN(c6ncc(-c7ccc8c9cnccc9n(C(F)F)c8c7)cc6F)CC5)CC4)c3C2=O)C(=O)N1 (centres unmarked) [Compound 594, 4-(4-(2-(1-(5-(5-(difluoromethyl)-5H-pyrido[4,3-b]indol-7-yl)-3-fluoropyridin-2-yl)piperidin-4-yl)ethyl)piperazin-1-yl)-2-(2,6-dioxopiperidin-3-yl)isoindoline-1,3-dione] | < 50
2 | Cn1c2ccncc2c2ccc(-c3ccc(O[C@H]4C[C@H](OC5CCN(CCCOc6ccc7c(c6)C(=O)N(C6CCC(=O)NC6=O)C7=O)CC5)C4)nc3)cc21 (some centres unmarked) [Compound 385, 2-(2,6-dioxopiperidin-3-yl)-5-(3-(4-((1r,3r)-3-((5-(5-methyl-5H-pyrido[4,3-b]indol-7-yl)pyridin-2-yl)oxy)cyclobutoxy)piperidin-1-yl)propoxy)isoindoline-1,3-dione] | > 50
3 | Cc1ncsc1-c1ccc([C@H](C)NC(=O)[C@@H]2C[C@@H](O)CN2C(=O)[C@@H](NC(=O)COCCCCCN2CCC(OC3CC(Oc4ccc(-c5ccc6c7cnccc7n(C)c6c5)cn4)C3)CC2)C(C)(C)C)cc1 (stereo partly drawn) [Compound 377, (2S,4R)-1-((S)-3,3-dimethyl-2-(2-((5-(4-((1r,3r)-3-((5-(5-methyl-5H-pyrido[4,3-b]indol-7-yl)pyridin-2-yl)oxy)cyclobutoxy)piperidin-1-yl)pentyl)oxy)acetamido)butanoyl)-4-hydroxy-N-((S)-1-(4-(4-methythiazol-5-yl)phenyl)ethyl) pyrrolidine-2-carboxamide] | > 50
4 | O=C1CCC(N2C(=O)c3ccc(OCCCCCN4CCC(OC5CN(c6ccc(-c7ccn8c(n7)nc7ccccc78)cn6)C5)CC4)cc3C2=O)C(=O)N1 (centres unmarked) [Compound 450, 2-(2,6-dioxo-3-piperidyl)-5-[5-[4-[1-(5-pyrimido[1,2-a]benzimidazol-2-yl-2-pyridyl)azetidin-3-yl]oxy-1-piperidyl]pentoxy]isoindoline-1,3-dione formate] | < 50

Next, values leading:

Row | remaining activity at 1 µM [%] | SMILES
5 | < 50 | Cn1c2ccncc2c2ccc(-c3ccc(C4CCN(CCC5CCN(c6ccc7c(c6)C(=O)N(C6CCC(=O)NC6=O)C7=O)CC5)CC4)nc3)cc21 (centres unmarked) [Compound 508, 2-(2,6-dioxopiperidin-3-yl)-5-(4-(2-(4-(5-(5-methyl-5H-pyrido[4,3-b]indol-7-yl)pyridin-2-yl)piperidin-1-yl)ethyl)piperidin-1-yl)isoindoline-1,3-dione]
6 | > 50 | O=C1CCC(N2C(=O)c3ccc(OCCN4CC5(C4)CN(C[C@H]4C[C@H](OC6CCN(c7ccn8c(n7)nc7ccccc78)CC6)C4)C5)cc3C2=O)C(=O)N1 (some centres unmarked) [Compound 460, 5-(2-(6-(((1r,3r)-3-((1-(benzo[4,5]imidazo[1,2-a]pyrimidin-2-yl)piperidin-4-yl)oxy)cyclobutyl)methyl)-2,6-diazaspiro[3.3]heptan-2-yl)ethoxy)-2-(2,6-dioxopiperidin-3-yl)isoindoline-1,3-dione]
7 | > 50 | CN(C)c1ccn2cc(-c3ccc(OCCOCCOCCOc4ccc5c(c4)C(=O)N(C4CCC(=O)NC4=O)C5=O)cc3)nc2c1 (centres unmarked) [Compound 440, 5-(2-(2-(2-(4-(7-(dimethylamino)imidazo [1,2-a]pyridin-2-yl)phenoxy)ethoxy)ethoxy)ethoxy)-2-(2,6-dioxopiperidin-3-yl)isoindoline-1,3-dione]
8 | > 50 | Nc1cccc2cnc(-n3ccc4cc(N5CCC(CCN6CCN(c7ccc8c(c7)C(=O)N(C7CCC(=O)NC7=O)C8=O)CC6)CC5)ncc43)cc12 (centres unmarked) [Compound 480, 5-[4-(2-[1-[1-(5-aminoisoquinolin-3-yl)pyrrolo[2,3-c]pyridin-5-yl]piperidin-4-yl]ethyl)piperazin-1-yl]-2-(2,6-dioxopiperidin-3-yl)isoindole-1,3-dione]
